{
  "source": "patent US11370798B2",
  "about": "(Vertex Pharmaceuticals Incorporated, priority 2012, dated 2022)",
  "data": [
    {"tested_on": "HCT116 colorectal cancer cells", "experiment": "Cisplatin sensitization assay (96 h cell viability MTS);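 note: Test-compound concentration that lowers the Cisplatin IC50 by a set fold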", "format": "cell-based", "details": "compound and Cisplatin added simultaneously, Cisplatin sensitization value", "procedure,_shortened": "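Compound and cisplatin added together as a full matrix of 2-fold serial dilutions from a top final concentration of 10 μM; cells incubated 96 h at 37° C, 5% CO2. Viability then read by MTS after 1 h further incubation; sensitization value reported in μM bins.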", "values": [
      {"smiles": "Nc1nn2cc(Cl)cnc2c1C(=O)Nc1cnccc1OC1CN2CCC1CC2", "note": "(stereo not shown) [I-O-62, 2-amino-6-chloro-N-(4-(quinuclidin-3-yloxy)pyridin-3-yl)pyrazolo[1,5-a]pyrimidine-3-carboxamide]", "Cisplatin Sensitization Assay": "+++ (Cisplatin sensitization value of <0.02 μM)"},
      {"smiles": "CN1CCN(c2ccncc2NC(=O)c2c(N)nn3cc(F)cnc23)CC1=O", "note": "[I-N-209, 2-amino-6-fluoro-N-(4-(4-methyl-3-oxopiperazin-1-yl)pyridin-3-yl)pyrazolo[1,5-a]pyrimidine-3-carboxamide]", "Cisplatin Sensitization Assay": "+++ (Cisplatin sensitization value of <0.02 μM)"},
      {"smiles": "CN1CCCCC1C(=O)N1CCN(c2c(F)cncc2NC(=O)c2c(N)nn3cc(F)cnc23)CC1", "note": "(stereo not shown) [I-N-214, 2-amino-6-fluoro-N-(5-fluoro-4-(4-(1-methylpiperidine-2-carbonyl)piperazin-1-yl)pyridin-3-yl)pyrazolo[1,5-a]pyrimidine-3-carboxamide]", "Cisplatin Sensitization Assay": "++ (Cisplatin sensitization value>0.02 μM but <0.2 μM)"},
      {"smiles": "Nc1nn2cc(F)cnc2c1C(=O)Nc1cnccc1OC1CC[S+]([O-])CC1", "note": "(stereo not shown) [I-O-44, 2-amino-6-fluoro-N-(4-((1-oxidotetrahydro-2H-thiopyran-4-yl)oxy)pyridin-3-yl)pyrazolo[1,5-a]pyrimidine-3-carboxamide]", "Cisplatin Sensitization Assay": "++ (Cisplatin sensitization value>0.02 μM but <0.2 μM)"},
      {"smiles": "Nc1nn2cc(Cl)cnc2c1C(=O)Nc1cnccc1O[C@H]1C[C@]2(CCN2)C1", "note": "[I-O-78, N-(4-((4s,6r)-1-azaspiro[3.3]heptan-6-yloxy)pyridin-3-yl)-2-amino-6-chloropyrazolo[1,5-a]pyrimidine-3-carboxamide]", "Cisplatin Sensitization Assay": "+ (Cisplatin sensitization value>0.2 μM but <5 μM)"},
      {"smiles": "CN1CCC(S(=O)(=O)N2CCN(c3ccncc3NC(=O)c3c(N)nn4cc(F)cnc34)CC2)CC1", "note": "[I-N-188, 2-amino-6-fluoro-N-(4-(4-((1-methylpiperidin-4-yl)sulfonyl)piperazin-1-yl)pyridin-3-yl)pyrazolo[1,5-a]pyrimidine-3-carboxamide]", "Cisplatin Sensitization Assay": "+++ (Cisplatin sensitization value of <0.02 μM)"},
      {"smiles": "Nc1nn2cc(F)cnc2c1C(=O)Nc1cncc(F)c1N1CCC(C(=O)N2CCN3CCC2CC3)CC1", "note": "[I-G-7, N-(4-(4-(1,4-diazabicyclo[3.2.2]nonane-4-carbonyl)piperidin-1-yl)-5-fluoropyridin-3-yl)-2-amino-6-fluoropyrazolo[1,5-a]pyrimidine-3-carboxamide]", "Cisplatin Sensitization Assay": "+++ (Cisplatin sensitization value of <0.02 μM)"},
      {"smiles": "Nc1nn2cc(Cl)cnc2c1C(=O)Nc1cnccc1N1CCC(N2CCC23COC3)CC1", "note": "[I-N-109, N-(4-(4-(6-oxa-1-azaspiro[3.3]heptan-1-yl)piperidin-1-yl)pyridin-3-yl)-2-amino-6-chloropyrazolo[1,5-a]pyrimidine-3-carboxamide]", "Cisplatin Sensitization Assay": "+++ (Cisplatin sensitization value of <0.02 μM)"},
      {"smiles": "Nc1nn2cc(F)cnc2c1C(=O)Nc1cnccc1OC1CCOC1", "note": "(racemic) [I-O-15, (R,S)-2-amino-6-fluoro-N-(4-((tetrahydrofuran-3-yl)oxy)pyridin-3-yl)pyrazolo[1,5-a]pyrimidine-3-carboxamide]", "Cisplatin Sensitization Assay": "+++ (Cisplatin sensitization value of <0.02 μM)"},
      {"smiles": "Cn1nccc1-c1ccncc1NC(=O)c1c(N)nn2cc(F)cnc12", "note": "[I-C-57, 2-amino-6-fluoro-N-(4-(1-methyl-1H-pyrazol-5-yl)pyridin-3-yl)pyrazolo[1,5-a]pyrimidine-3-carboxamide]", "Cisplatin Sensitization Assay": "+++ (Cisplatin sensitization value of <0.02 μM)"},
      {"smiles": "Nc1nn2cc(F)cnc2c1C(=O)Nc1cnccc1-c1ccc(C(=O)N2CCN(C3COC3)CC2)cc1", "note": "[I-C-49, 2-amino-6-fluoro-N-(4-(4-(4-(oxetan-3-yl)piperazine-1-carbonyl)phenyl)pyridin-3-yl)pyrazolo[1,5-a]pyrimidine-3-carboxamide]", "Cisplatin Sensitization Assay": "+++ (Cisplatin sensitization value of <0.02 μM)"},
      {"smiles": "CN1CCN(C(=O)C2CCN(c3c(F)cncc3NC(=O)c3c(N)nn4cc(F)cnc34)C2)CC1", "note": "(stereo not shown) [I-N-191, 2-amino-6-fluoro-N-(5-fluoro-4-(3-(4-methylpiperazine-1-carbonyl)pyrrolidin-1-yl)pyridin-3-yl)pyrazolo[1,5-a]pyrimidine-3-carboxamide]", "Cisplatin Sensitization Assay": "+ (Cisplatin sensitization value>0.2 μM but <5 μM)"},
      {"smiles": "CCN1CCCC1C(=O)N1CCN(c2c(F)cncc2NC(=O)c2c(N)nn3cc(F)cnc23)CC1", "note": "(stereo not shown) [I-N-185, 2-amino-N-(4-(4-(1-ethylpyrrolidine-2-carbonyl)piperazin-1-yl)-5-fluoropyridin-3-yl)-6-fluoropyrazolo[1,5-a]pyrimidine-3-carboxamide]", "Cisplatin Sensitization Assay": "++ (Cisplatin sensitization value>0.02 μM but <0.2 μM)"},
      {"smiles": "CC(C)N1CCN(c2ccncc2NC(=O)c2c(N)nn3cc(Cl)cnc23)CC1", "note": "[I-N-39, 2-amino-6-chloro-N-(4-(4-isopropylpiperazin-1-yl)pyridin-3-yl)pyrazolo[1,5-a]pyrimidine-3-carboxamide]", "Cisplatin Sensitization Assay": "++ (Cisplatin sensitization value>0.02 μM but <0.2 μM)"},
      {"smiles": "CN1CC[C@@H](Oc2ccncc2NC(=O)c2c(N)nn3cc(Cl)cnc23)C1", "note": "[I-O-63, (R)-2-amino-6-chloro-N-(4-((1-methylpyrrolidin-3-yl)oxy)pyridin-3-yl)pyrazolo[1,5-a]pyrimidine-3-carboxamide]", "Cisplatin Sensitization Assay": "++ (Cisplatin sensitization value>0.02 μM but <0.2 μM)"},
      {"smiles": "COC1CCN(C2CCN(c3ccncc3NC(=O)c3c(N)nn4cc(Cl)cnc34)CC2)C1", "note": "(stereo not shown) [I-N-95, 2-amino-6-chloro-N-(4-(4-(3-methoxypyrrolidin-1-yl)piperidin-1-yl)pyridin-3-yl)pyrazolo[1,5-a]pyrimidine-3-carboxamide]", "Cisplatin Sensitization Assay": "++ (Cisplatin sensitization value>0.02 μM but <0.2 μM)"},
      {"smiles": "Nc1nn2cc(F)cnc2c1C(=O)Nc1cncc(F)c1N1CCS(=O)(=O)CC1", "note": "[I-N-250, 2-amino-N-(4-(1,1-dioxidothiomorpholino)-5-fluoropyridin-3-yl)-6-fluoropyrazolo[1,5-a]pyrimidine-3-carboxamide]", "Cisplatin Sensitization Assay": "++ (Cisplatin sensitization value>0.02 μM but <0.2 μM)"},
      {"smiles": "C[C@@H]1CN(C(=O)C2CCN(c3c(F)cncc3NC(=O)c3c(N)nn4cc(F)cnc34)CC2)CCN1", "note": "[I-G-45, (R)-2-amino-6-fluoro-N-(5-fluoro-4-(4-(3-methylpiperazine-1-carbonyl)piperidin-1-yl)pyridin-3-yl)pyrazolo[1,5-a]pyrimidine-3-carboxamide]", "Cisplatin Sensitization Assay": "+++ (Cisplatin sensitization value of <0.02 μM)"},
      {"smiles": "CN(C)[C@H]1CCN(c2ccncc2NC(=O)c2c(N)nn3cc(Cl)cnc23)C[C@@H]1O", "note": "[I-N-35, 2-amino-6-chloro-N-(4-((3S,4S)-4-(dimethylamino)-3-hydroxypiperidin-1-yl)pyridin-3-yl)pyrazolo[1,5-a]pyrimidine-3-carboxamide]", "Cisplatin Sensitization Assay": "+ (Cisplatin sensitization value>0.2 μM but <5 μM)"},
      {"smiles": "Nc1nn2cc(F)cnc2c1C(=O)Nc1cnccc1N1CCC(C(=O)N2CC(F)(F)C2)CC1", "note": "[I-G-80, 2-amino-N-(4-(4-(3,3-difluoroazetidine-1-carbonyl)piperidin-1-yl)pyridin-3-yl)-6-fluoropyrazolo[1,5-a]pyrimidine-3-carboxamide]", "Cisplatin Sensitization Assay": "+++ (Cisplatin sensitization value of <0.02 μM)"},
      {"smiles": "Nc1nn2cc(F)cnc2c1C(=O)Nc1cncc(F)c1N1CCC(C(=O)N2CCN3CCC2C3)CC1", "note": "(stereo not shown) [I-G-46, N-(4-(4-(1,4-diazabicyclo[3.2.1]octane-4-carbonyl)piperidin-1-yl)-5-fluoropyridin-3-yl)-2-amino-6-fluoropyrazolo[1,5-a]pyrimidine-3-carboxamide]", "Cisplatin Sensitization Assay": "+++ (Cisplatin sensitization value of <0.02 μM)"},
      {"smiles": "Nc1nn2cc(F)cnc2c1C(=O)Nc1cnccc1-c1ccc(C(=O)N2CCC(N3CCCC3)CC2)nc1", "note": "[I-C-53, 2-amino-6-fluoro-N-(6-(4-(pyrrolidin-1-yl)piperidine-1-carbonyl)-[3,4′-bipyridin]-3′-yl)pyrazolo[1,5-a]pyrimidine-3-carboxamide]", "Cisplatin Sensitization Assay": "+++ (Cisplatin sensitization value of <0.02 μM)"},
      {"smiles": "CC1(C)CCCN1c1ccncc1NC(=O)c1c(N)nn2cc(F)cnc12", "note": "[I-N-220, 2-amino-N-(4-(2,2-dimethylpyrrolidin-1-yl)pyridin-3-yl)-6-fluoropyrazolo[1,5-a]pyrimidine-3-carboxamide]", "Cisplatin Sensitization Assay": "++ (Cisplatin sensitization value>0.02 μM but <0.2 μM)"},
      {"smiles": "Nc1nn2cc(F)cnc2c1C(=O)Nc1cnccc1-c1cccnc1Cl", "note": "[I-C-37, 2-amino-N-(2-chloro-[3,4′-bipyridin]-3′-yl)-6-fluoropyrazolo[1,5-a]pyrimidine-3-carboxamide]", "Cisplatin Sensitization Assay": "+++ (Cisplatin sensitization value of <0.02 μM)"},
      {"smiles": "Nc1nn2cc(F)cnc2c1C(=O)Nc1cncc(F)c1N1CCC(C(=O)N2CCC2)CC1", "note": "[I-G-8, 2-amino-N-(4-(4-(azetidine-1-carbonyl)piperidin-1-yl)-5-fluoropyridin-3-yl)-6-fluoropyrazolo[1,5-a]pyrimidine-3-carboxamide]", "Cisplatin Sensitization Assay": "+++ (Cisplatin sensitization value of <0.02 μM)"},
      {"smiles": "Nc1nn2cc(F)cnc2c1C(=O)Nc1cncc(F)c1N1CCC(C(=O)NC2COC2)CC1", "note": "[I-G-37, 2-amino-6-fluoro-N-(5-fluoro-4-(4-(oxetan-3-ylcarbamoyl)piperidin-1-yl)pyridin-3-yl)pyrazolo[1,5-a]pyrimidine-3-carboxamide]", "Cisplatin Sensitization Assay": "++ (Cisplatin sensitization value>0.02 μM but <0.2 μM)"},
      {"smiles": "Nc1nn2cc(F)cnc2c1C(=O)Nc1cnccc1N1CCN2C(=O)OCC2C1", "note": "(stereo not shown) [I-N-238, 2-amino-6-fluoro-N-(4-(3-oxotetrahydro-1H-oxazolo[3,4-a]pyrazin-7(3H)-yl)pyridin-3-yl)pyrazolo[1,5-a]pyrimidine-3-carboxamide]", "Cisplatin Sensitization Assay": "++ (Cisplatin sensitization value>0.02 μM but <0.2 μM)"},
      {"smiles": "Cc1nc(C(=O)N2CCN(C)CC2)ccc1-c1ccncc1NC(=O)c1c(N)nn2cc(F)cnc12", "note": "[I-C-39, 2-amino-6-fluoro-N-(2-methyl-6-(4-methylpiperazine-1-carbonyl)-[3,4′-bipyridin]-3′-yl)pyrazolo[1,5-a]pyrimidine-3-carboxamide]", "Cisplatin Sensitization Assay": "+++ (Cisplatin sensitization value of <0.02 μM)"}
    ]}
  ]
}
